Tested on: GFAP, Iba-1, Connexin43 (retinal inflammation markers)
Assay: Immunohistochemical labelling of GFAP, Iba-1 and Connexin43 in retina of light damaged rats
Format: in vivo, Sprague Dawley (SD) rats
Experimental: Retina Light Damage Model of Dry Age-Related Macular Degeneration—The intense light damage model was prepared and carried out as described in previous studies. Mat Nor N, Guo C X, Rupenthal ID, Chen Y S, Green C R, Acosta M L. Sustained Connexin43 Mimetic Peptide Release From Loaded Nanoparticles Reduces Retinal and Choroidal Photodamage. Invest Ophthalmol Vis Sci. 2018; 59:3682-93; Guo C X, Mat Nor M N, Danesh-Meyer H V, Vessey K A, Fletcher E L, O'Carroll S J, et al. Connexin43 Mimetic Peptide Improves Retinal Function and Reduces Inflammation in a Light-Damaged Albino Rat Model. Invest Ophthalmol Vis Sci. 2016; 57:3961-73; Guo C X, Tran H, Green C R, Danesh-Meyer H V, Acosta M L. Gap junction proteins in the light-damaged albino rat. Mol Vis. 2014; 20:670-82; Noell W K, Walker V S, Kang B S, Berman S. Retinal damage by light in rats. Invest Ophthalmol. 1966; 5:450-73. The light damage rat model was selected as it allows direct comparison with this and other drugs. Kim Y, Griffin J M, Nor M N M, Zhang J, Freestone P S, Danesh-Meyer H V, et al. Tonabersat Prevents Inflammatory Damage in the Central Nervous System by Blocking Connexin43 Hemichannels. Neurotherapeutics. 2017; 14:1148-65; Mat Nor N, Guo C X, Rupenthal ID, Chen Y S, Green C R, Acosta M L, supra; Guo C X, Mat Nor M N, Danesh-Meyer H V, Vessey K A, Fletcher E L, O'Carroll S J, et al., supra. […] All experimental procedures were approved by the University of Auckland Animal Ethics Committee, approval No. 001462 and comply with the Association for Research in Vision and Ophthalmology (ARVO) statement for the use of animals in eye research. Six to eight-week old albino Sprague Dawley (SD) rats (200-250 g; male or female) were used. Adult SD rats were exposed to continuous bright light for 24 hours, consistently starting at 9:00 am to minimize possible time-of-day variability. Light exposure was to two animals at a time to prevent rats from taking cover using each other as a shield. The LD protocol and intervention was repeated until the number of individuals for each dose group was obtained (n=7 per group). The light luminance was 2700 lux, generated using fluorescent lamps (Philips Master TLD 18W/965; Koninklijke Philips Electronics N.V., China) directly above the animal cages. The lamps were cool and emitted broadband light, from 380 to 760 nm wavelength, with the average intensity at the top of the cage being 120 W/m2. Animals were free to move within the cage with access to food and water ad libidum. Baseline electroretinography (ERG) readings and optical coherence tomography (OCT) images were collected prior to the light damage. After light exposure, animals were returned to normal light-dark cycle conditions (12 hours light, 174 lux and 12 hours darkness, <62 lux) for 24 hours, 1 week or 2 weeks (and for one group 3 months).
Tonabersat treatment of light damaged rats—LD rats were randomly assigned to low, middle or high dose of tonabersat (n=7 per group). The mixture of tonabersat in peanut butter was prepared fresh for each experiment. Three oral tonabersat doses were tested (n=7 per group) with follow up to 2 weeks post-injury, and the highest dose group then split with three animals taken for histological analysis, and four animals followed to 3 months post-injury. There was a ten-animal vehicle only control group. The group of rats that were kept for 3 months were maintained in separate cages for drug or vehicle-treated animals, but were kept under the same light conditions. Tonabersat was fed to animals in peanut butter at 0.26 mg/kg (on average 0.08 mg delivered, estimated circulating concentration 10 μM), 0.8 mg/kg (average of 0.24 mg delivered; 30 μM circulating) or 2.4 mg/kg (on average 0.72 mg delivered; 90 μM circulating) following consideration of previous unsuccessful human trial dosing levels. Silberstein S D. Tonabersat, a novel gap-junction modulator for the prevention of migraine. Cephalalgia. […]

[1] = all tonabersat treated groups, p<0.001

CC(=O)c1ccc2c(c1)[C@H](NC(=O)c1ccc(F)c(Cl)c1)[C@H](O)C(C)(C)O2 [tonabersat, N-[(3S,4S)-6-acetyl-3-hydroxy-2,2-dimethyl-3,4-dihydrochromen-4-yl]-3-chloro-4-fluorobenzamide] was tested, and the Iba-1 reactivity (0.26 mg/kg) was “slightly higher level”, the GFAP labelling (0.26 mg/kg, significantly less than vehicle) was “slight increase” and the “GFAP immunoreactivity in the retina compared to vehicle” value (0.8 mg/kg) was “did not increase”. For the same molecule, the “GFAP immunoreactivity in the retina compared to vehicle” value (2.4 mg/kg) was “did not increase”, the “Connexin43 immunoreactivity in the retina compared to vehicle” value (all three tonabersat doses) was “less” and the “Connexin43 level, image quantification vs vehicle controls” value [1] was “significantly less”. The “GFAP level, image quantification vs vehicle controls” value [1] was “significantly less”, the “Iba-1 level, image quantification vs vehicle controls” value [1] was “significantly less” and the “Iba-1 immunolabelled cells in inner plexiform layer compared to vehicle” value (drug treated groups (all three doses)) was “less active”.

Reference: US20220401408A1, “COMPOSITIONS AND METHODS FOR RESCUING RETINAL AND CHOROIDAL STRUCTURE AND FUNCTION” (AUCKLAND UNISERVICES LIMITED, priority 2019, published 2022)
